The source of these data is patent US20140127159A1, “HCV Combination Therapy” (Stella ApS, priority 2011, published 2014).

For data set [1], the system named is Huh-luc/neo-ET HCV genotype Ib replicon cells. The class given is cell-based. As to conditions: 28 days culture under G418 selective pressure, crystal violet. The method, then: Cell culture and Assay setup: The reporter cell line Huh-luc/neo-ET was obtained and prepare as described previously. Cells were plated into 10 cm tissue culture dishes at a density of 3×10^5 cells per plate in culture medium containing 250 μg/ml G418 and incubated for 24 hours at 37° C. in an environment of 5% CO2. Following the 24 hour incubation, dilutions of SPC3649, SPC4729, or telaprevir were prepared in cell culture medium (as above) with 750 μg/ml G418. Each of the dilutions was added to duplicate plates and the plates were incubated at 37° C. in an environment of 5% CO^2. Two additional plates received cell culture medium with 750 μg/ml G418 as a no-treatment control. […] The final concentration of SPC4729 was 10.0 μM. […] Following 28 days of passage, one set of dishes was stained with crystal violet and the other set of plates was utilized for expansion and establishment of resistant cell culture stocks.
Huh-luc/neo-ET HCY genotype Ib replicon cells were cultured under selective pressure in the presence of 750 μg/mL G4 I8 with and without four independent fixed concentrations of SPC3649 anti-miR oligonucleotide, or telaprevir, or one concentration of scrambled oligonucleotide SPC4729 for 28 days in tissue culture plates. Duplicate tissue culture dishes were established and maintained for each culture condition. […]

Data set [2] relates to HCV genotype 1b replicon NS3 A156T. As to the kind of experiment: Transient transfection replicon assay in Huh 7 cells, NS3 A156T. As to conditions: EC50 mutant / EC50 wild-type; mean of two experiments. It is filed as cell-based. In general terms: In antiviral work, replicon cells carry a viral genome segment that copies itself.
Experimental: (§2) Huh 7 cells were transfected with either the wild-type or the mutant RNA constructs by electroporation. Luciferase activity was measured 72 hours after compound treatment and EC50 values determined from dose-response curves. Fold resistance was expressed as the ratio of the EC50 for mutant HCV replicon to the EC50 for wild-type HCV replicon.
(§3) Huh 7 cells were transfected with either the wild type or the mutant RNA constructs by electroporation. Luciferase activity was measured 72 hours after compound treatment and EC50 values determined from dose-response curves. Fold resistance was expressed as the ratio of the EC50 for mutant HCV replicon to the EC50 for wild-type HCV replicon. Results are expressed as the mean of two individual experiments.
In a further data set the test system is all HCV genotypes. As to the kind of experiment: In vitro activity against HCV genotypes. It is filed as cell-based.
Data set [3] relates to HCV genotype 1b replicon NS3 R155K. In words: Transient transfection replicon assay in Huh 7 cells, NS3 R155K. The class given is cell-based. As to conditions: EC50 mutant / EC50 wild-type; mean of two experiments.
Experimental: as §2, §3
Data set [4] relates to HCV genotype 1b replicon NS5B M423I. As to the kind of experiment: Transient transfection replicon assay in Huh 7 cells, NS5B M423I. It is filed as cell-based. As to conditions: EC50 mutant / EC50 wild-type; mean of two experiments.
Experimental: as §2, §3
The subject of data set [5] is HCV genotype 1b replicon NS5B S282T. As to the kind of experiment: Transient transfection replicon assay in Huh 7 cells, NS5B S282T. Particulars: EC50 mutant / EC50 wild-type; mean of two experiments. The class given is cell-based.
Experimental: as §2, §3
Data set [6] deals with HCV genotype 1b replicon NS5A Y93H. As to the kind of experiment: Transient transfection replicon assay in Huh 7 cells, NS5A Y93H. It is filed as cell-based. As to conditions: EC50 mutant / EC50 wild-type; mean of two experiments.
Experimental: as §2, §3
The test system of a further data set is HCV genotype 1. In words: Phase 2a clinical trial, miravirsen monotherapy. The class given is in vivo, patients. As to conditions: for mean of the maximum HCV RNA decline from baseline: 5 weekly doses subcutaneously over 29 days. On the procedure: Thirty-six treatment-naïve chronic HCV genotype 1 infected patients were enrolled into 3 sequential dosing cohorts and received 5 weekly doses of miravirsen 3, 5, or 7 mg/kg (n=27) or placebo (n=9) subcutaneously over 29 days and were followed up until week 18.

In another data set the test system is Huh-luc/neo-ET. On the procedure: (§1) The anti-viral efficacy and cellular toxicity of non-transfected antimiR oligonucleotide in combination with approved and experimental anti-HCV therapeutics (boceprevir or telepravir, was determined in the reporter cell line Huh-luc/neo-ET. This cell line harbors the persistently replicating I389luc-ubi-neo/NS3-3′/ET replicon containing the firefly luciferase gene-ubiquitin-neomycin phosphotransferase fusion protein and EMCV IRES driven NS3-5B HCV coding sequences containing the ET tissue culture adaptive mutations (E1202G, T1208I, and K1846T). Eight dilutions of non-transfected antimiR oligonucleotide (bracketing the calculated EC50) were evaluated in triplicate on duplicate sets of three plates with five dilutions of each of the control compounds (bracketing the calculated EC50). One set of plates was used for the determination of cellular toxicity and the other set of plates is used for the determination of anti-viral efficacy. The efficacy and toxicity results was quantified with firefly luciferase activity and XTT dye reduction, respectively, and the results of the assay is imported into the Prichard and Shipman MacSynergy II software program. The MacSynery II analysis includes calculation of the dose response of the two (or more) compounds when used alone followed by calculation of the expected additive level of antiviral inhibition or toxicity when the compounds are used together based on the individual dose response curves. The expected level of activity at each of the concentration data points is compared to the experimentally determined antiviral activity in the assay. The expected activity was subtracted from the realized activity, yielding a negative, zero or positive value.
The reporter cell line Huh-luc/neo-ET was obtained from Dr. Ralf Bartenschlager (Department of Molecular Virology, Hygiene Institute, University of Heidelberg, Germany) by ImQuest BioSciences. This cell line harbors the persistently replicating 1389luc-ubi-neo/NS3-3′IET replicon containing the firefly luciferase gene-ubiquitinneomycin phosphotransferase fusion protein and EMCV IRES driven NS3-5B HCV coding sequences containing the ET tissue culture adaptive mutations (E 1202G, T12081, and KI846T). A stock culture of the Huh-luc/neo-ET was expanded by culture in DMEM supplemented with 10% FBS, 2 mM glutamine, penicillin (100 IU/mL)/streptomycin (100 f.Ig/mL) and IX nonessential amino acids plus I mg/ml G418. Prior to plating, the cells were split 1:4 and cultured for two passages in the same medium plus 250 f.Ig/mL G418. The cells were treated with trypsin and enumerated by staining with trypan blue and seeded into 96-well tissue culture plates at a cell culture density 5.0×10^3 cells per well in a volume of 85 f.IL per well and incubated at […] in an environment of 5% CO2 for 24 hours. Six plates were established for the determination of combination efficacy (EC50) and cytotoxicity (TC50) for each of the compound combinations (three plates each for efficacy and toxicity). […] Following incubation, the plates were assessed for anti-HCV activity by measurement of luciferase reporter activity and cellular cytotoxicity by XTT staining.

Data set [7] has as its system HCV genotype Ib replicon in Huh-luc/neoET cells. It is filed as cell-based. As to conditions: for Efficacy, Antagonism vol: in combination with miravirsen (SPC3649), 95% confidence interval, median (≧3 experiments) or individual values. The method, then:
as §1
This example was based on an in vitro evaluation of SPC3649 (miravirsen) in combination with anti-HCV drugs and experimental compounds. […] The combination antiviral assays were performed using the reporter cell line Huh-luc/neo-ET, which contains a bicistronic HCV genotype Ib replicon. Combination data were analyzed using MacSynergy II software at the 95%, confidence interval. The in vitro combination assays were designed to define the antiviral interaction of the two compounds and to determine if their interaction was synergistic or antagonistic.
The reporter cell line Huh-luc/neo-ET was obtained from Dr. Ralf Bartenschlager (Department of Molecular Virology, Hygiene Institute, University of Heidelberg, Germany) by ImQuest BioSciences. This cell line harbors the persistently replicating 1389luc-ubi-neo/NS3-3′IET replicon containing the firefly luciferase gene-ubiquitinneomycin phosphotransferase fusion protein and EMCV IRES driven NS3-5B HCV coding sequences containing the ET tissue culture adaptive mutations (E 1202G, T12081, and KI846T). […]

Several values for one entry are separate records, joined by “and”; a condition that tells them apart may be missing. Equal entries are not always repeated. Entries after “also recorded” stand apart in the source; their conditions may differ. Where two headings read alike, the source gives them in different places.

Regarding “5′-^mCs^ocsAs^otstsGs^oTs^ocsas^mCs^oas^mCs^ots^mCs^omC^o-3′ (CCATTGTCACACTCC; all phosphorothioate, sugars by position and methylation of C not given here; further chemistry not fully specified) [miravirsen]”, the “distinct individual resistant clonal populations” value in data set [1] (listed as SPC3649) is reported as “failed to produce distinct individual resistant clonal populations; also recorded: distinct individual resistant clonal populations were not produced”. The “Fold Resistance NS3 A156T” value in data set [2] worked out at 1.0 fold. Moreover, the “efficacy against HCV genotypes in vitro” value with all HCV genotypes is “effective against all HCV genotypes in vitro”. The “Fold Resistance NS3 R155K” value in data set [3] is 1.2 fold. Besides, in data set [4], the “Fold Resistance NS5B M423I” value is recorded as 1.7 fold. The “Fold Resistance NS5B S282T” value in data set [5] is reported as 1.9 fold. Besides, the “Fold Resistance NS5A Y93H” value in data set [6] came to 0.9 fold. In addition, the “mean of the maximum HCV RNA decline from baseline” value is 1.2 log10 IU/mL in the data set with HCV genotype 1 (3 mg/kg), 2.9 log10 IU/mL in the data set with HCV genotype 1 (5 mg/kg) and 3.0 log10 IU/mL in the data set with HCV genotype 1 (7 mg/kg). The “safety and tolerability, adverse events” value with HCV genotype 1 (3, 5 or 7 mg/kg) was “no dose-limiting adverse events; also recorded: safe, well-tolerated”. The “escape mutations / emergence of viral resistance” value with HCV genotype 1 (HCV genome miR-122 binding sites) is listed as “no escape mutations were observed; also recorded: not seen”.

Regarding `C[C@@]1(O)[C@H](O)[C@@H](CO)O[C@H]1n1ccc(N)nc1=O` [2′-C-Methylcytidine], in data set [2], the “Fold Resistance NS3 A156T” value stood at 0.9 fold. For the same compound, the “Fold Resistance NS3 R155K” value in [3] was 0.8 fold. In addition, the “Fold Resistance NS5B M423I” value in data set [4] stood at 1.0 fold. The “Fold Resistance NS5A Y93H” value in data set [6] is on record as 1.0 fold.

In the case of `COC(=O)N[C@H](C(=O)N1CCC[C@H]1c1nc(-c2ccc(-c3ccc(-c4c[nH]c([C@@H]5CCCN5C(=O)[C@@H](NC(=O)OC)C(C)C)n4)cc3)cc2)c[nH]1)C(C)C` [BMS 790052, Carbamic acid, N,N′-[[1,1′-biphenyl]-4,4′-diylbis[1H-imidazole-5,2-diyl-(2S)-2,1-pyrrolidinediyl[(1S)-1-(1-methylethyl)-2-oxo-2,1-ethanediyl]]]bis-, C,C′-dimethyl ester], in the data set with Huh-luc/neo-ET (human), the “Cytotoxicity, Antagonism vol” value is recorded as 0/−21.9 μM^2% and the “Cytotoxicity, Synergy vol” value is reported as 0/−21.9 μM^2%. The “Efficacy, Antagonism vol” value in data set [7] was −24.5 μM^2% and −0.06 μM^2%. Besides, the “Fold Resistance NS5A Y93H” value in data set [6] turned out to be 29.9 fold.

Take `CCC[C@H](NC(=O)[C@@H]1[C@H]2CCC[C@H]2CN1C(=O)[C@@H](NC(=O)[C@@H](NC(=O)c1cnccn1)C1CCCCC1)C(C)(C)C)C(=O)C(=O)NC1CC1` [Telaprevir, (1S,3aR,6aS)-2-[(2S)-2-[[(2S)-2-Cyclohexyl-2-(pyrazine-2-carbonylamino)acetyl]amino]-3,3-dimethylbutanoyl]-N-[(3S)-1-(cyclopropylamino)-1,2-dioxohexan-3-yl]-3,3a,4,5,6,6a-hexahydro-1H-cyclopenta[c]pyrrole-1-carboxamide]: the “distinct individual resistant clonal populations” value in data set [1] is listed as “production of distinct individual resistant clonal populations”. Further, the “Cytotoxicity, Antagonism vol” value with Huh-luc/neo-ET (in combination with miravirsen (SPC3649), 95% confidence interval) is listed as 0/−5.05 μM^2%. In addition, in the data set on Huh-luc/neo-ET (in combination with ribavirin, 95% confidence level), the “Cytotoxicity, Antag Vol” value is 0.00/−50.9 μM^2%. Also, the “Fold Resistance NS3 R155K” value in [3] worked out at 4.6 fold. For the same compound, the “Efficacy, Antagonism vol” value in data set [7] is 0/−3.2 (±3.08/6.89) μM^2%. For the same compound, the “Efficacy, Antag Vol” value in data set [7] (in combination with ribavirin, 95% confidence level, individual values) was 37.5/22.6; μM^2%. The “Fold Resistance NS5B S282T” value in data set [5] is recorded as 1.0 fold.

Turning to `CC(C)(C)C#Cc1cc(N(C(=O)[C@H]2CC[C@H](C)CC2)[C@H]2CC[C@H](O)CC2)c(C(=O)O)s1` [VX-222], the “Cytotoxicity, Synergy vol” value with Huh-luc/neo-ET (human) was 0/−28.6; 0/0 μM^2%. In [4], the “Fold Resistance NS5B M423I” value amounted to 4.4 fold. In data set [7], the “Efficacy, Antagonism vol” value is −34.44 μM^2%.
